# In ChEMBL document CHEMBL2440076, “New triarylpyrazoles as broad-spectrum anticancer agents: design, synthesis, and biological evaluation” (Eur J Med Chem, 2013):
# Legend:
# Format in all cases: functional
# [1] = system: SK-MEL-28; assay: Growth inhibition of human SK-MEL-28 cells assessed as cell growth at 10^-6 M after 48 hrs by sulforhodamine B assay; settings: SK-MEL-28, 48 h, read-out: Activity
# [2] = system: SK-MEL-5; assay: Growth inhibition of human SK-MEL-5 cells assessed as cell growth at 10^-8 M after 48 hrs by sulforhodamine B assay; settings: SK-MEL-5, 48 h, read-out: Activity
# [3] = system: SK-MEL-2; assay: Growth inhibition of human SK-MEL-2 cells assessed as cell growth at 10^-8 M after 48 hrs by sulforhodamine B assay; settings: SK-MEL-2, 48 h, read-out: Activity
# [4] = Growth inhibition of human NCI-ADR-RES cells assessed as cell growth at 10^-6 M after 48 hrs by sulforhodamine B assay; settings: read-out: Activity
# [5] = Growth inhibition of human Hs 578T cells assessed as cell growth at 10^-4 M after 48 hrs by sulforhodamine B assay; settings: read-out: Activity
# [6] = system: NCI-H522; assay: Growth inhibition of human NCI-H522 cells assessed as cell growth at 10^-7 M after 48 hrs by sulforhodamine B assay; settings: NCI-H522, 48 h, read-out: Activity
# [7] = system: HT-29; assay: Growth inhibition of human HT-29 cells assessed as cell growth at 10^-8 M after 48 hrs by sulforhodamine B assay; settings: HT-29, 48 h, read-out: Activity
# [8] = system: HOP-62; assay: Growth inhibition of human HOP62 cells assessed as cell growth at 10^-5 M after 48 hrs by sulforhodamine B assay; settings: HOP-62, 48 h, read-out: Activity
# [9] = system: CCRF-CEM; assay: Growth inhibition of human CCRF-CEM cells assessed as cell growth at 10^-5 M after 48 hrs by sulforhodamine B assay; settings: read-out: Activity
# [10] = system: SK-OV-3; assay: Growth inhibition of human SKOV3 cells assessed as cell growth at 10^-8 M after 48 hrs by sulforhodamine B assay; settings: SK-OV-3, 48 h, read-out: Activity
# [11] = system: SNB-75; assay: Growth inhibition of human SNB75 cells assessed as cell growth at 10^-7 M after 48 hrs by sulforhodamine B assay; settings: SNB-75, 48 h, read-out: Activity
# [12] = system: UACC-257; assay: Growth inhibition of human UACC257 cells assessed as cell growth at 10^-7 M after 48 hrs by sulforhodamine B assay; settings: UACC-257, 48 h, read-out: Activity
# [13] = system: KM12; assay: Growth inhibition of human KM12 cells assessed as cell growth at 10^-6 M after 48 hrs by sulforhodamine B assay; settings: KM12, 48 h, read-out: Activity
# [14] = system: CCRF-CEM; assay: Growth inhibition of human CCRF-CEM cells assessed as cell growth at 10^-8 M after 48 hrs by sulforhodamine B assay; settings: read-out: Activity
# [15] = system: RXF 393; assay: Growth inhibition of human RXF393 cells assessed as cell growth at 10^-4 M after 48 hrs by sulforhodamine B assay; settings: RXF 393, 48 h, read-out: Activity
# [16] = system: COLO 205; assay: Growth inhibition of human COLO205 cells assessed as cell growth at 10^-5 M after 48 hrs by sulforhodamine B assay; settings: COLO 205, 48 h, read-out: Activity
# [17] = system: HL-60(TB); assay: Growth inhibition of human HL-60(TB) cells assessed as cell growth at 10^-6 M after 48 hrs by sulforhodamine B assay; settings: HL-60, 48 h, read-out: Activity
# [18] = system: OVCAR-8; assay: Growth inhibition of human OVCAR8 cells assessed as cell growth at 10^-4 M after 48 hrs by sulforhodamine B assay; settings: OVCAR-8, 48 h, read-out: Activity
# [19] = system: ACHN; assay: Growth inhibition of human ACHN cells assessed as cell growth at 10^-5 M after 48 hrs by sulforhodamine B assay; settings: read-out: Activity
# [20] = system: SF-539; assay: Growth inhibition of human SF539 cells assessed as cell growth at 10^-5 M after 48 hrs by sulforhodamine B assay; settings: SF-539, 48 h, read-out: Activity
# [21] = system: SK-MEL-5; assay: Growth inhibition of human SK-MEL-5 cells assessed as cell growth at 10^-5 M after 48 hrs by sulforhodamine B assay; settings: SK-MEL-5, 48 h, read-out: Activity
# [22] = system: A549; assay: Growth inhibition of human A549/ATCC cells assessed as cell growth at 10^-6 M after 48 hrs by sulforhodamine B assay; settings: A549, 48 h, read-out: Activity
# [23] = Growth inhibition of human HCC2998 cells assessed as cell growth at 10^-5 M after 48 hrs by sulforhodamine B assay; settings: HCC 2998, 48 h, read-out: Activity
# [24] = system: SF-539; assay: Growth inhibition of human SF539 cells assessed as cell growth at 10^-6 M after 48 hrs by sulforhodamine B assay; settings: SF-539, 48 h, read-out: Activity
# [25] = system: PC-3; assay: Growth inhibition of human PC3 cells assessed as cell growth at 10^-6 M after 48 hrs by sulforhodamine B assay; settings: PC-3, 48 h, read-out: Activity
# [26] = system: MOLT-4; assay: Growth inhibition of human MOLT4 cells assessed as cell growth at 10^-4 M after 48 hrs by sulforhodamine B assay; settings: MOLT-4, 48 h, read-out: Activity
# [27] = system: HOP-92; assay: Growth inhibition of human HOP92 cells assessed as cell growth at 10^-7 M after 48 hrs by sulforhodamine B assay; settings: HOP-92, 48 h, read-out: Activity
# [28] = system: SW-620; assay: Growth inhibition of human SW620 cells assessed as cell growth at 10^-7 M after 48 hrs by sulforhodamine B assay; settings: SW-620, 48 h, read-out: Activity
# [29] = system: TK-10; assay: Growth inhibition of human TK10 cells assessed as cell growth at 10^-6 M after 48 hrs by sulforhodamine B assay; settings: TK-10, 48 h, read-out: Activity
# [30] = system: SK-MEL-2; assay: Growth inhibition of human SK-MEL-2 cells assessed as cell growth at 10^-7 M after 48 hrs by sulforhodamine B assay; settings: SK-MEL-2, 48 h, read-out: Activity
# [31] = system: SR; assay: Growth inhibition of human SR cells assessed as cell growth at 10^-4 M after 48 hrs by sulforhodamine B assay; settings: read-out: Activity
# [32] = system: 786-0; assay: Growth inhibition of human 786-0 cells assessed as cell growth at 10^-6 M after 48 hrs by sulforhodamine B assay; settings: 786-0, 48 h, read-out: Activity
# [33] = system: MDA-MB-231; assay: Growth inhibition of human MDA-MB-231 cells assessed as cell growth at 10^-5 M after 48 hrs by sulforhodamine B assay; settings: MDA-MB-231, 48 h, read-out: Activity
# [34] = system: OVCAR-8; assay: Growth inhibition of human OVCAR8 cells assessed as cell growth at 10^-8 M after 48 hrs by sulforhodamine B assay; settings: OVCAR-8, 48 h, read-out: Activity
# [35] = system: HOP-62; assay: Growth inhibition of human HOP62 cells assessed as cell growth at 10^-7 M after 48 hrs by sulforhodamine B assay; settings: HOP-62, 48 h, read-out: Activity
# [36] = system: SK-MEL-28; assay: Growth inhibition of human SK-MEL-28 cells assessed as cell growth at 10^-4 M after 48 hrs by sulforhodamine B assay; settings: SK-MEL-28, 48 h, read-out: Activity
# [37] = system: MDA-MB-468; assay: Growth inhibition of human MDA-MB-468 cells assessed as cell growth at 10^-6 M after 48 hrs by sulforhodamine B assay; settings: MDA-MB-468, 48 h, read-out: Activity
Compound,growth at 1 µM [1] [%],growth at 0.01 µM [2] [%],growth at 0.01 µM [3] [%],growth at 1 µM [4] [%],growth at 100 µM [5] [%],growth at 0.1 µM [6] [%],growth at 0.01 µM [7] [%],growth at 10 µM [8] [%],growth at 10 µM [9] [%],growth at 0.01 µM [10] [%],growth at 0.1 µM [11] [%],growth at 0.1 µM [12] [%],growth at 1 µM [13] [%],growth at 0.01 µM [14] [%],growth at 100 µM [15] [%],growth at 10 µM [16] [%],growth at 1 µM [17] [%],growth at 100 µM [18] [%],growth at 10 µM [19] [%],growth at 10 µM [20] [%],further results
COc1cc(-c2nn(-c3cccc(NC(=O)c4ccccc4)c3)cc2-c2ccncc2)ccc1Cl,60,97,93,28,32,85,98,48,6,97,86,99,36,97,-8,-31,27,26,26,-25,growth at 10 µM [21]: -60%; growth at 1 µM [22]: 37%; growth at 10 µM [23]: 7%; growth at 1 µM [24]: 21%; growth at 1 µM [25]: 29%; growth at 100 µM [26]: 33%; growth at 0.1 µM [27]: 86%; growth at 0.1 µM [28]: 92%; growth at 1 µM [29]: 80%; growth at 0.1 µM [30]: 90%; growth at 100 µM [31]: 12%; growth at 1 µM [32]: 56%; growth at 10 µM [33]: 7%; growth at 0.01 µM [34]: 98%; growth at 0.1 µM [35]: 98%; growth at 100 µM [36]: 26%; growth at 1 µM [37]: 17%
COc1cc(-c2nn(-c3cccc(NC(=O)c4ccc(N5CCOCC5)c(C(F)(F)F)c4)c3)cc2-c2ccncc2)ccc1Cl,56,95,111,11,14,51,98,31,5,103,75,74,28,94,-27,-84,24,1,2,-54,growth at 10 µM [21]: -55%; growth at 1 µM [22]: 31%; growth at 10 µM [23]: -22%; growth at 1 µM [24]: -30%; growth at 1 µM [25]: 15%; growth at 100 µM [26]: 2%; growth at 0.1 µM [27]: 56%; growth at 0.1 µM [28]: 58%; growth at 1 µM [29]: 58%; growth at 0.1 µM [30]: 73%; growth at 100 µM [31]: 6%; growth at 1 µM [32]: 45%; growth at 10 µM [33]: -30%; growth at 0.01 µM [34]: 98%; growth at 0.1 µM [35]: 90%; growth at 100 µM [36]: 13%; growth at 1 µM [37]: -9%
